Experiment [1] concerns spontaneously hyper-tensive rats (SHR from the company Charles River). The experiment can be described thus: pressure tests in spontaneously hypertensive rats, awake and free to move. In kind it is in vivo. From the text: (§1) In the following examples will first of all be given the data necessary for synthesis of the compounds according to the present invention. There will then be given data regarding their pharmacological activity, using methods widely known to be valid. In particular, for the pressure tests, spontaneously hyper-tensive rats were used (SHR from the company Charles River), operated in such a way as to enable pressure to be read even when the animals were awake and free to move. In order to evaluate the analgesic activity, the Hot Plate and Writhing Tests were used. For the anti-inflammatory effect the test of carraginine edema was used. Finally, for immuno-modulating activity the evaluation of the stimulation of growth of human lymphocytes in culture was resorted to, after the addition of specific antigens.

Experiment [2] deals with human lymphocytes in culture. Put plainly: immuno-modulating activity: stimulation of growth of human lymphocytes in culture after addition of specific antigens. In kind it is cell-based. The following applies: PHA stimulated lymphocytes.
From the text: as §1, with “antigens. The results obtained for each synthesized compound are given at the end of each example.” for “antigens.”

The nature of experiment [3]: Hot Plate test (analgesic activity). In kind it is in vivo.
From the text: as §1, with “antigens. The results obtained for each synthesized compound are given at the end of each example.” for “antigens.”
For orientation: Thermal pain tests record how soon the animal reacts.

Square brackets hold non-standard residues; d marks the D form. Peptide text beside a SMILES is read from it. * marks the point of attachment. Phg = N[C@H](C(=O)O)c1ccccc1; Cbz = O=C(OCc1ccccc1)*

In the case of `CCOC(=O)[C@@H]1Cc2c([nH]c3ccccc23)CN1C(=O)[C@H](C)NC(=O)[C@@H]1CCCN1C(=O)OCc1ccccc1` [compound 1, Z-(L)-Pro-(L)-Ala-(S)-CytOEt], in experiment [1] (4 mg/Kg i.p.), the “anti-hypertensive effect (in words)” value was “good anti-hypertensive effect”, the “duration of the anti-hypertensive effect” value is “a number of hours” and the “reduction of pressure values” is 15-20%. Further, in experiment [2], the “response of lymphocytes stimulated by phytohemoagglutinine (PHA) (in words)” value was “increases the response of lymphocytes”. Further, in experiment [3] (4 mg/Kg i.p.), the “pain killing effect under the Hot Plate test (in words)” value is reported as “slight pain killing effect”.
For the compound `COC(=O)[C@@H](NC(=O)[C@H](C)NC(=O)[C@@H]1CCCN1C(=O)OCc1ccccc1)c1ccccc1` [compound 5, Z-(L)-Pro-(L)-Ala-(L)-PhgOMe] (Cbz-Pro-Ala-[Phg]-OMe), in experiment [1] (8 mg/Kg i.p.), the “anti-hypertensive effect (in words)” value was “bland anti-hypertensive effect”. Further, the “analgesic effect, Hot Plate test (in words)” value in experiment [3] (dose not stated) is recorded as “moderate analgesic effect”.

These data come from patent US5736518A, “Peptide compounds of (L) amino acids and ring molecules, and therapeutical applications thereof” (Polifarma S.p.A., priority 1990, dated 1998).
